Experiments:
Assay type in all cases: biochemical
[1] = target: T1, Fms (Homo sapiens, UniProt P07333); assay: AlphaScreen kinase assay, Fms; settings: read-out: IC50, activity toward kinase Fms
T1 construct: purchased Upstate Biotechnology

[2] = target: T2, B-Raf V600E (Homo sapiens, UniProt P15056, V600E); assay: AlphaScreen kinase assay, B-Raf V600E; settings: read-out: IC50, activity toward kinase B-Raf V600E
T2 construct: P4254. pFastBacBD-CDC37 BRAF D437-K722-X, V600E; His6 with pFastBac HT leader (TEV site) (N); made in house; host or cells: Sf9 (baculovirus; chaperone CDC37 co-expressed)
T2 sequence (P15056 with tags, fused parts or gaps V600E): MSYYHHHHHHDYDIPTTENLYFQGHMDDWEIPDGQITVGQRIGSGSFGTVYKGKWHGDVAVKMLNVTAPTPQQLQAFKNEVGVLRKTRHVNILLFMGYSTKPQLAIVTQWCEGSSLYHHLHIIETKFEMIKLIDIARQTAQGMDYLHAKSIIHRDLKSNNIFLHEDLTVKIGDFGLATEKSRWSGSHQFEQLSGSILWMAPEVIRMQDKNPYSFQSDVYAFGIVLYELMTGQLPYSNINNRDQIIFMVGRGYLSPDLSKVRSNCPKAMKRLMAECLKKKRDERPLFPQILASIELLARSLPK

[3] = target: T3, Flt1 (Homo sapiens, UniProt P17948); assay: AlphaScreen kinase assay, Flt1; settings: read-out: IC50, activity toward kinase Flt1
T3 construct: P1826.pETN6 BI-PTP FLT1 M799-D1165-X WT; His6 (N); made in house; host or cells: E. coli (PTP1B co-expressed)
T3 sequence (P17948 with tags, fused parts or gaps): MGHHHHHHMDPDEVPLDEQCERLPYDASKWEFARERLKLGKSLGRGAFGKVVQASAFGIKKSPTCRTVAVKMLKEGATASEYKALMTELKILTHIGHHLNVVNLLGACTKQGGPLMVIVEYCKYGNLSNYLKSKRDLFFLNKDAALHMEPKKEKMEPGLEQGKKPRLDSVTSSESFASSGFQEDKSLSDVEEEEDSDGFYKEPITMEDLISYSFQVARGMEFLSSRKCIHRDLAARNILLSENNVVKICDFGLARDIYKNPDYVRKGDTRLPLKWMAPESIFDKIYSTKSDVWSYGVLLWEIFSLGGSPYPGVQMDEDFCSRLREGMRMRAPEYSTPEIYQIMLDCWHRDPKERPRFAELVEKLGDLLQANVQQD

[4] = target: T4, B-Raf (Homo sapiens, UniProt P15056); assay: AlphaScreen kinase assay, B-Raf; settings: read-out: IC50, activity toward kinase B-Raf
T4 construct: purchased Upstate Biotechnology
T4 sequence (P15056 whole entry): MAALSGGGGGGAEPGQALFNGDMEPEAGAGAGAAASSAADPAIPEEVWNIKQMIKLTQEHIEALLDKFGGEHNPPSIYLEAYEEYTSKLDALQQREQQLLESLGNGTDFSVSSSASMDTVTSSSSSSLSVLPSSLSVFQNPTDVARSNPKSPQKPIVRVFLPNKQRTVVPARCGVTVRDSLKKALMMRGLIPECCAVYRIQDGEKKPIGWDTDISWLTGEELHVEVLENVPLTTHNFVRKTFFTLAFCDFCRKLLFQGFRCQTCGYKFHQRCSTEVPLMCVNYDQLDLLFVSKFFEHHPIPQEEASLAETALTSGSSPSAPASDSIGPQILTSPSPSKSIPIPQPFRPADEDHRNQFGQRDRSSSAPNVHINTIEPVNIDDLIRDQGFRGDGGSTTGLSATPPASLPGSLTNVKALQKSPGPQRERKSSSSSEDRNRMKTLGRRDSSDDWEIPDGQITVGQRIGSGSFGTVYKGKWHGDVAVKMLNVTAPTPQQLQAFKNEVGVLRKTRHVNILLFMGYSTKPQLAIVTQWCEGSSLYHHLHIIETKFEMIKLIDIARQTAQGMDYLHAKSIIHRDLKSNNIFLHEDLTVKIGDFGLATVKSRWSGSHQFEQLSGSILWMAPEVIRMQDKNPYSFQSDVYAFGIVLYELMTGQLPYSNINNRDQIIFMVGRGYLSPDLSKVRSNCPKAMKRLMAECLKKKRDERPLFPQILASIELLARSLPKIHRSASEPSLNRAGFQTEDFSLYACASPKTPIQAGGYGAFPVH

[5] = target: T5, Jnk2 (Homo sapiens, UniProt P45984); assay: AlphaScreen kinase assay, Jnk2; settings: read-out: IC50, activity toward kinase Jnk2
T5 construct: purchased Roche Protein Expression Group (Indianapolis, IN)
T5 sequence (P45984 whole entry): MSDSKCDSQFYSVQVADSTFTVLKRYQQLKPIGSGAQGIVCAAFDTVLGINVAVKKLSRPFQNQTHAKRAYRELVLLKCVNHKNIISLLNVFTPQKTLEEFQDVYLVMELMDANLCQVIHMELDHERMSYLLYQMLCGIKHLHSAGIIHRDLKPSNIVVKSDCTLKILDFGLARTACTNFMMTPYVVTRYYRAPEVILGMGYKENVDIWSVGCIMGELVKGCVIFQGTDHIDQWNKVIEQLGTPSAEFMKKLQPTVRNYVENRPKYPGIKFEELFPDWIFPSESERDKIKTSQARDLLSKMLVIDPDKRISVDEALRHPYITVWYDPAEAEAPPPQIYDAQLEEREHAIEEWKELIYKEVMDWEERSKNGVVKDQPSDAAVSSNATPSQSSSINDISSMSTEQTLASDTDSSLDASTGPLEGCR
Text: AlphaScreen assay was used to screen additional kinases. The assay is similarly dependent on the phosphorylation of a peptide substrate. In this assay, an antibody that recognizes phosphorylated substrate is bound to an acceptor bead. The peptide substrate is attached to biotin, which binds to a donor head that contains streptavidin. Thus phosphorylated substrate is bound by antibody and streptavidin, bringing the donor and acceptor heads into close proximity when kinase is not inhibited. The donor produces singlet oxygen which results in emission from the acceptor when they are in close proximity. Conversely, when kinase is inhibited, the donor and acceptor beads are not associated and the emission from the acceptor is reduced.
AlphaScreen assays were done using compounds dissolved in DMSO to a concentration of 20 mM. The compounds were diluted accordingly to the desired final concentrations in each sample well, using 1:3 serial dilution for a total of 8 concentration points.

[6] = target: T6, Jnk1 (Homo sapiens, UniProt P45983); assay: AlphaScreen kinase assay, Jnk1; settings: read-out: IC50, activity toward kinase Jnk1
T6 construct: purchased Upstate Biotechnology
T6 sequence (P45983 whole entry): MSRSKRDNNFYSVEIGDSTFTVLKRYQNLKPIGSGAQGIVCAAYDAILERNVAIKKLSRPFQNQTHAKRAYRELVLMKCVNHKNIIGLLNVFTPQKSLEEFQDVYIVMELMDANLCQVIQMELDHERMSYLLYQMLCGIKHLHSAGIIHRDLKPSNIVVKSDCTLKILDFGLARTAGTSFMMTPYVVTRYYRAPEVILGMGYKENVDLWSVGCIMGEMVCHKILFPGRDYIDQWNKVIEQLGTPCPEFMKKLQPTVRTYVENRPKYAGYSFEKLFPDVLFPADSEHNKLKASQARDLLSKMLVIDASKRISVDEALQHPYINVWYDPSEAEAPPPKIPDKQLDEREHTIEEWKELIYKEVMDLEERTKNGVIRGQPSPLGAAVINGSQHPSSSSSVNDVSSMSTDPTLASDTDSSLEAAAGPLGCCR

[7] = target: T7, Jnk3 (Homo sapiens, UniProt P53779); assay: AlphaScreen kinase assay, Jnk3; settings: read-out: IC50, activity toward kinase Jnk3
T7 construct: purchased Upstate Biotechnology
T7 sequence (P53779 whole entry): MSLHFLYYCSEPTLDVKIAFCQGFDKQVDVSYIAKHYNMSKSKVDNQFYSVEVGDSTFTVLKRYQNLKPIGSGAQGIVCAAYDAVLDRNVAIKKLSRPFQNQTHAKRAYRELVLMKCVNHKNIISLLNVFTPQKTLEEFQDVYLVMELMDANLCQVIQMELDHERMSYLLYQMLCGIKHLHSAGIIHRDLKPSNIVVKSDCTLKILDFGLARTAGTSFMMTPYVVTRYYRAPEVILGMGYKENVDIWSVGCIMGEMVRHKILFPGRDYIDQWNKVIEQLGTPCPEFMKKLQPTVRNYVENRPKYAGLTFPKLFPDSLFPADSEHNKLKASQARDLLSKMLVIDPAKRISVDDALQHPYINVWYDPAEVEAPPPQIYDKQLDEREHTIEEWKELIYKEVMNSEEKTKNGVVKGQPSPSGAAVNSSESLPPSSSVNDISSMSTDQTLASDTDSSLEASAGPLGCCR
Protocol: (§1) AlphaScreen assays were done using compounds dissolved in DMSO to a concentration of 20 mM. The compounds were diluted accordingly to the desired final concentrations in each sample well, using 1:3 serial dilution for a total of 8 concentration points. Plates were prepared such that each kinase reaction is 20 μl in 1× kinase buffer, 5% DMSO and 10 μM ATP. After incubation of the kinase reaction for 1 hour at room temperature, 5 μl of donor beads in stop buffer (50 mM EDTA in 1× kinase buffer) was added, the sample was mixed and incubated for 20 minutes at room temperature before adding 5 μl of acceptor beads in stop buffer. The samples were incubated for 60 minutes at room temperature and the signal per well was read on AlphaQuest reader.

[8] = target: T8, FGFR1 (Homo sapiens, UniProt P11362, C488A/C584S); assay: AlphaScreen kinase assay, FGFR1; settings: read-out: IC50, activity toward kinase FGFR
T8 construct: P1351.pET N6 BI-PTP FGFR A458-E765-X C488A, C584S; made in house; host or cells: E. coli (PTP1B co-expressed)
T8 sequence (P11362 458-765 C488A/C584S): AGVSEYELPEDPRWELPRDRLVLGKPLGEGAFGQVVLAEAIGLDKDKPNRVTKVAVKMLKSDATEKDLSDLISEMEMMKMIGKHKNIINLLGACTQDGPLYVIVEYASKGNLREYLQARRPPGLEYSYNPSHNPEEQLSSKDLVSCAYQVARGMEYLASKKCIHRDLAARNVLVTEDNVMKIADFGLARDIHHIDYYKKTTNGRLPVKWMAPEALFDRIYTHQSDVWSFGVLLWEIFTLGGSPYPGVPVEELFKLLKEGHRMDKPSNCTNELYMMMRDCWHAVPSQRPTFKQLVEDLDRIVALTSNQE
Protocol: as §1

[9] = target: T9, Kit (Homo sapiens, UniProt P10721); assay: AlphaScreen kinase assay, Kit; settings: read-out: IC50, activity toward kinase Kit
T9 construct: P1332.N6 BI PTP KIT M552-K948-X COD; His6 (N); made in house; host or cells: E. coli (PTP1B co-expressed)
T9 sequence (P10721 with tags, fused parts or gaps): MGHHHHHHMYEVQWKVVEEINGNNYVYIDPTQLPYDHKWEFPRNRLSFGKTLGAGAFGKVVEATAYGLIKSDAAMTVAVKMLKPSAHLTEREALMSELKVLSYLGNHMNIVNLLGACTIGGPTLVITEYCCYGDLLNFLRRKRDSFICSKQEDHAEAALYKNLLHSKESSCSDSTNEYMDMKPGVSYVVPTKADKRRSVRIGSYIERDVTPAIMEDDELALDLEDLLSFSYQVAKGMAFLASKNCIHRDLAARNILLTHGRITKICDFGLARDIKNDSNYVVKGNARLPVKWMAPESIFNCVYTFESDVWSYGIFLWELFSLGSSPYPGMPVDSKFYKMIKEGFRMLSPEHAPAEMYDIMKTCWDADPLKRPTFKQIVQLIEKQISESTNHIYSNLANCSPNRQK

[10] = target: T10, c-Raf-1 (Homo sapiens, UniProt P04049); assay: AlphaScreen kinase assay, c-Raf-1; settings: read-out: IC50, activity toward kinase c-Raf-1
T10 construct: purchased Upstate Biotechnology
T10 sequence (P04049 whole entry): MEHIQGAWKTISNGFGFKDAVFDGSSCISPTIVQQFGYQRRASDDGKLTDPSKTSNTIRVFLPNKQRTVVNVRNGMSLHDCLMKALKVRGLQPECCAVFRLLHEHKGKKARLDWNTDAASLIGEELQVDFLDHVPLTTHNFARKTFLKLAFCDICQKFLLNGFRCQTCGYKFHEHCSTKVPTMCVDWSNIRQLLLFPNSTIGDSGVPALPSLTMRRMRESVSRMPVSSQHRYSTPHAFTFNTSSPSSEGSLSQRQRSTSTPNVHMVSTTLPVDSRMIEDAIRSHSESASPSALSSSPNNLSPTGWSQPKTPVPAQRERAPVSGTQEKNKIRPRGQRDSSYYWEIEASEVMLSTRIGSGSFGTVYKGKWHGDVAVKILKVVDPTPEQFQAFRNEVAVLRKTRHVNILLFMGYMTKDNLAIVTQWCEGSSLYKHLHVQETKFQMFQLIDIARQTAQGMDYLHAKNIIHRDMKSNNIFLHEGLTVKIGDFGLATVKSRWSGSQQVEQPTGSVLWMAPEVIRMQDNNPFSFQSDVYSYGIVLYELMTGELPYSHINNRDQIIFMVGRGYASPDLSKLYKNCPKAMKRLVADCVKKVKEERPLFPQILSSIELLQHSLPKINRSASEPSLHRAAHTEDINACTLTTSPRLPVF
Protocol: as §1

[11] = target: T11, Ret (Homo sapiens, UniProt P07949); assay: AlphaScreen kinase assay, Ret; settings: read-out: IC50, activity toward kinase Ret
T11 construct: P1378.pET-SF BI-PTP RET H661-R1012 HIS; made in house
T11 sequence (P07949 with tags, fused parts or gaps): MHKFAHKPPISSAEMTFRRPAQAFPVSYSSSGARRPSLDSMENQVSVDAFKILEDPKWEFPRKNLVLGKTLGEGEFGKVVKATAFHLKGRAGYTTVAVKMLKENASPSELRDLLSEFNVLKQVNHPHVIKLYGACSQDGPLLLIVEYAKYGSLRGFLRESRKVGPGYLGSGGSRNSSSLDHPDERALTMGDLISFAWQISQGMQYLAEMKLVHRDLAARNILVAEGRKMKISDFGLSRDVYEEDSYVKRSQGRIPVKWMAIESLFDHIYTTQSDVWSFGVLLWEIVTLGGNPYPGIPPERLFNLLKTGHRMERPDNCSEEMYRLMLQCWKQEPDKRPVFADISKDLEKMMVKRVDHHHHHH

Measured: IC50

T1 sequence (P07333 20-972): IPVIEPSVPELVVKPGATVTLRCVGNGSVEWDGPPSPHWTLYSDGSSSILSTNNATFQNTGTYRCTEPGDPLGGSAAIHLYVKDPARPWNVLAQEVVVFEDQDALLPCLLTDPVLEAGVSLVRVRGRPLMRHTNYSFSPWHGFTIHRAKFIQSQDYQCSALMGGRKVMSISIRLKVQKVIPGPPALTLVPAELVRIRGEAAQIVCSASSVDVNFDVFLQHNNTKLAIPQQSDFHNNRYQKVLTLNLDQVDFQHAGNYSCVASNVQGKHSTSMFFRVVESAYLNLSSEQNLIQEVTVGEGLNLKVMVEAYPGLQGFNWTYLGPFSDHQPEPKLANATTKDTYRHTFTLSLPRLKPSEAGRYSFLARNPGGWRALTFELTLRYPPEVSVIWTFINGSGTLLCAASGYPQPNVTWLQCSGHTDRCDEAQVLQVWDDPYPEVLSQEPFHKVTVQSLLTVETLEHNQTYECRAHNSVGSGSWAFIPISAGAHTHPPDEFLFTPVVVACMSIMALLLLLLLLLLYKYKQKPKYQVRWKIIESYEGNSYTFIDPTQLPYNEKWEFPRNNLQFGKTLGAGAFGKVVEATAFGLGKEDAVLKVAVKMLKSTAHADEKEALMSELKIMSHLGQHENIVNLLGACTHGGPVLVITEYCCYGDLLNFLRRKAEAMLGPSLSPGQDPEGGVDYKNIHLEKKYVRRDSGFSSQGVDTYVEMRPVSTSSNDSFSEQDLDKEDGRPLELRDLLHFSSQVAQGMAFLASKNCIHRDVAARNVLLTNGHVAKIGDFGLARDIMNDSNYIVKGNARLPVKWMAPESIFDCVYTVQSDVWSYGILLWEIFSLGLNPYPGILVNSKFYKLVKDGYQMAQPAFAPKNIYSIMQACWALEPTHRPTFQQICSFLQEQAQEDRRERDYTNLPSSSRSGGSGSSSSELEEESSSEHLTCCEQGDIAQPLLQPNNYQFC

CCCCNC(=O)n1ccc2c(C(=O)c3c[nH]c4ncc(-c5ccc(Cl)cc5)cc34)cccc21 [Compound P-1602, 4-[5-(4-Chloro-phenyl)-1H-pyrrolo[2,3-b]pyridine-3-carbonyl]-indole-1-carboxylic acid butylamide]
≤ 10 µM: [1] | [2] | [3] | [4] | [5] | [6]

COc1cc(NC(=O)Nc2cccc(C(=O)c3c[nH]c4ncc(-c5cccnc5)cc34)c2)cc(C(F)(F)F)c1 [Compound P-1778, 1-(3-Methoxy-5-trifluoromethyl-phenyl)-3-[3-(5-pyridin-3-yl-1H-pyrrolo[2,3-b]pyridine-3-carbonyl)-phenyl]-urea]
≤ 10 µM: [1] | [2] | [4] | [5] | [6]

CCCCNC(=O)n1ccc2c(Cc3c[nH]c4ncc(-c5cccnc5)cc34)cccc21 [Compound P-1656, 4-(5-pyridin-3-yl-1H-pyrrolo[2,3-b]pyridin-3-ylmethyl)-indole-1-carboxylic acid butylamide]
≤ 10 µM: [1] | [2] | [4] | [5] | [6]

CCCCNC(=O)Nc1ccc(F)c(C(=O)c2c[nH]c3ncc(-c4cccc(S(C)(=O)=O)c4)cc23)c1 [Compound P-1627, 1-Butyl-3-{4-fluoro-3-[5-(3-methanesulfonyl-phenyl)-1H-pyrrolo[2,3-b]pyridine-3-carbonyl]-phenyl}-urea]
≤ 10 µM: [1] | [2] | [4] | [5] | [6]

CCCCNC(=O)n1ccc2c(C(=O)c3c[nH]c4ncc(-c5ccc(OC)nc5)cc34)cccc21 [Compound P-1827, 4-[5-(6-Methoxy-pyridin-3-yl)-1H-pyrrolo[2,3-b]pyridine-3-carbonyl]-indole-1-carboxylic acid butylamide]
≤ 10 µM: [1] | [7] | [4] | [5] | [6]

Cc1c(NS(C)(=O)=O)cccc1C(=O)c1c[nH]c2ncc(-c3cccnc3)cc12 [Compound P-0121, N-[2-Methyl-3-(5-pyridin-3-yl-1H-pyrrolo[2,3-b]pyridine-3-carbonyl)-phenyl]-methanesulfonamide]
not listed: [3] | [4] | [7]
≤ 10 µM: all other assays above

COc1ccc(NC(=O)Nc2cccc(C(=O)c3c[nH]c4ncc(-c5cccnc5)cc34)c2)cn1 [Compound P-1779, 1-(6-Methoxy-pyridin-3-yl)-3-[3-(5-pyridin-3-yl-1H-pyrrolo[2,3-b]pyridine-3-carbonyl)-phenyl]-urea]
≤ 10 µM: [1] | [2] | [4] | [5] | [6]

COc1ccc(NC(=O)Nc2cccc(C(=O)c3c[nH]c4ncc(-c5cccnc5)cc34)c2)cc1 [Compound P-1723, 1-(4-Methoxy-phenyl)-3-[3-(5-pyridin-3-yl-1H-pyrrolo[2,3-b]pyridine-3-carbonyl)-phenyl]-urea]
≤ 10 µM: [1] | [2] | [4] | [5] | [6]

O=C(Nc1cccc(F)c1)Nc1cccc(C(=O)c2c[nH]c3ncc(-c4cccnc4)cc23)c1 [Compound P-1730, 1-(3-Fluoro-phenyl)-3-[3-(5-pyridin-3-yl-1H-pyrrolo[2,3-b]pyridine-3-carbonyl)-phenyl]-urea]
≤ 10 µM: [1] | [2] | [4] | [5] | [6]

O=C(c1c[nH]c2ncc(-c3ccccc3)cc12)c1cccc2c1ccn2C(=O)NCc1ccccc1 [Compound P-1611, 4-(5-Phenyl-1H-pyrrolo[2,3-b]pyridine-3-carbonyl)-indole-1-carboxylic acid benzylamide]
≤ 10 µM: [1] | [2] | [7] | [5] | [6]

O=C(Nc1ccncc1)Nc1cccc(C(=O)c2c[nH]c3ncccc23)c1 [Compound P-1760, 1-Pyridin-4-yl-3-[3-(1H-pyrrolo[2,3-b]pyridine-3-carbonyl)-phenyl]-urea]
≤ 10 µM: [1] | [2] | [4] | [5] | [6]

O=C(Nc1cccc(C(=O)c2c[nH]c3ncc(-c4cccnc4)cc23)c1)Nc1ccc(Cl)c(C(F)(F)F)c1 [Compound P-1751, 1-(4-Chloro-3-trifluoromethyl-phenyl)-3-[3-(5-pyridin-3-yl-1H-pyrrolo[2,3-b]pyridine-3-carbonyl)-phenyl]-urea]
≤ 10 µM: [1] | [2] | [4] | [5] | [6]

O=C(Nc1cccc(C(=O)c2c[nH]c3ncc(-c4cccnc4)cc23)c1)Nc1cccc(C(F)(F)F)c1 [Compound P-1755, 1-[3-(5-Pyridin-3-yl-1H-pyrrolo[2,3-b]pyridine-3-carbonyl)-phenyl]-3-(3-trifluoromethyl-phenyl)-urea]
≤ 10 µM: [1] | [2] | [4] | [5] | [6]

Cn1cccc1-c1nc(-c2ccnc3[nH]ccc23)no1 [Compound P-0285]
≤ 10 µM: [7] | [5] | [6]

O=C(Nc1cccc(C(=O)c2c[nH]c3ncc(-c4cccnc4)cc23)c1)Nc1ccc(C(F)(F)F)cc1Cl [Compound P-1727, 1-(2-Chloro-4-trifluoromethyl-phenyl)-3-[3-(5-pyridin-3-yl-1H-pyrrolo[2,3-b]pyridine-3-carbonyl)-phenyl]-urea]
≤ 10 µM: [1] | [2] | [4] | [5] | [6]

O=C(Nc1ccc(C(F)(F)F)cc1)Nc1cccc(C(=O)c2c[nH]c3ncc(-c4cccnc4)cc23)c1 [Compound P-1731, 1-[3-(5-Pyridin-3-yl-1H-pyrrolo[2,3-b]pyridine-3-carbonyl)-phenyl]-3-(4-trifluoromethyl-phenyl)-urea]
≤ 10 µM: [1] | [2] | [4] | [5] | [6]

O=C(Nc1ccncc1)Nc1cccc(C(=O)c2c[nH]c3ncc(-c4cccnc4)cc23)c1 [Compound P-1777, 1-Pyridin-4-yl-3-[3-(5-pyridin-3-yl-1H-pyrrolo[2,3-b]pyridine-3-carbonyl)-phenyl]-urea]
≤ 10 µM: [2] | [7] | [4] | [5] | [6]

— US8415469B2, “Compounds and methods for kinase modulation, and indications therefor” (Plexxikon Inc., priority 2005, dated 2013)
